Experimental data from US9278914B2, “SARMs and method of use thereof” (UNIVERSITY OF TENNESSEE RESEARCH FOUNDATION, priority 2004, dated 2016).

Test system: finishing pigs
Experiment: Growth performance and carcass composition of finishing pigs
Type: in vivo, pig
Conditions: for lb FFL: fat free lean; for L side / R side: carcass; for lbs FFL/D: fat free lean gain per day
Text: Pigs were blocked by weight and allotted to one of four treatments with ten replicate pens per treatment. Pigs were housed with one pig per pen in an environmentally controlled finishing barn with 4 ft×4 ft slatted pens.
All animals were fed a corn-soybean meal diet with 1% corn oil. […] Final SARM concentrations were 1, 3, and 10 ppm. All animals were fed their respective diets for the duration of the study.
Pigs were allowed ad libitum access to feed and water. Pigs and feeders were weighed on day 7, 14, 21, and 28 to calculate average daily gain (ADG), average daily feed intake (ADFI), and feed-to-gain ratio (F/G or F:G). Each pen served as an experimental unit for all statistical analysis.
Pigs were slaughtered at the Kansas State University Meats Laboratory at the end of the study for collection of individual carcass data. At 24 hours postmortem, the right side of the carcass was frozen at −40° C. for approximately […]. After freezing, sides were ground once through a grinder equipped with a 19 mm die, then mixed and ground through a second grinder equipped with a 9.5 mm die. A sub sample of ground carcass was then chemically analyzed to determine percentages of crude protein, moisture/dry matter, lipid, and ash. Carcass measurements were done on the left side of the carcass, and a sample of lean and fat was taken from the longissimus at approximately the 10th rib.
The data were analyzed as a randomized complete-block design. Analysis of variance was performed by using the MIXED procedure of SAS. Linear and quadratic contrasts were used to evaluate the effects of increasing the level of the SARM on growth and carcass performance.

C[C@](O)(COc1ccc(Cl)c(F)c1)C(=O)Nc1ccc(C#N)c(C(F)(F)F)c1 [S-II, (S)-3-(4-chloro-3-fluorophenoxy)-N-(4-cyano-3-(trifluoromethyl)phenyl)-2-hydroxy-2-methylpropanamide]
Carcass Wt (1 PPM): 201
Live Wt (1 PPM): 289
Carcass Wt (3 PPM): 200
Live Wt (3 PPM): 288
Carcass Wt (10 PPM): 197
Live Wt (10 PPM): 281
ADFI (average daily feed intake) (Day 0-7, 1 ppm in diet): 7.56
ADG (average daily gain) (Day 0-7, 1 ppm in diet): 2.89
ADFI (average daily feed intake) (Day 0-7, 3 ppm in diet): 7.54
ADG (average daily gain) (Day 0-7, 3 ppm in diet): 2.37
ADG (average daily gain) (Day 0-7, 10 ppm in diet): 2.17
ADFI (average daily feed intake) (Day 0-7, 10 ppm in diet, listed as SARM): 7.4
ADG (average daily gain) (Day 0-28 (total), 1 ppm in diet): 2.74
ADG (average daily gain) (Day 0-28 (total), 3 ppm in diet, listed as SARM): 2.7
ADG (average daily gain) (Day 0-28 (total), 10 ppm in diet, listed as SARM): 2.5
ADFI (average daily feed intake) (Day 0-28, 1 ppm in diet): 8.28
ADFI (average daily feed intake) (Day 0-28, 3 ppm in diet): 8.38
ADFI (average daily feed intake) (Day 0-28, 10 ppm in diet): 7.85
ADFI (average daily feed intake) (Day 8-14, 1 ppm in diet): 8.74
ADG (average daily gain) (Day 8-14, 1 ppm in diet): 2.59
ADG (average daily gain) (Day 8-14, 3 ppm in diet): 2.65
ADFI (average daily feed intake) (Day 8-14, 3 ppm in diet, listed as SARM): 8.5
ADFI (average daily feed intake) (Day 8-14, 10 ppm in diet): 7.89
ADG (average daily gain) (Day 8-14, 10 ppm in diet): 2.37
ADFI (average daily feed intake) (Day 15-21, 1 ppm in diet): 8.33
ADG (average daily gain) (Day 15-21, 1 ppm in diet): 2.33
ADFI (average daily feed intake) (Day 15-21, 3 ppm in diet): 8.61
ADG (average daily gain) (Day 15-21, 3 ppm in diet): 2.65
ADFI (average daily feed intake) (Day 15-21, 10 ppm in diet): 7.78
ADG (average daily gain) (Day 15-21, 10 ppm in diet): 2.43
ADFI (average daily feed intake) (Day 22-28, 1 ppm in diet): 8.51
ADG (average daily gain) (Day 22-28, 1 ppm in diet): 3.15
ADFI (average daily feed intake) (Day 22-28, 3 ppm in diet): 8.89
ADG (average daily gain) (Day 22-28, 3 ppm in diet): 3.15
ADFI (average daily feed intake) (Day 22-28, 10 ppm in diet): 8.33
ADG (average daily gain) (Day 22-28, 10 ppm in diet): 3.03
Gain (Days 0-7, 1 PPM): 20.3
Gain (Days 0-7, 3 PPM): 16.6
Gain (Days 0-7, 10 PPM): 15.2
Gain (Days 8-14, 1 PPM): 18.2
Gain (Days 8-14, 3 PPM): 18.6
Gain (Days 8-14, 10 PPM): 16.6
Gain (Days 15-21, 1 PPM): 16.3
Gain (Days 15-21, 3 PPM): 18.5
Gain (Days 15-21, 10 PPM): 17.0
Gain (Days 22-28, 1 PPM): 22.0
Gain (Days 22-28, 3 PPM): 22.0
Gain (Days 22-28, 10 PPM): 21.2
average daily gain (ADG) over the course of the study, trend (FIG. 5A): increased
fat free lean gain per day, trend (FIG. 5C): increased
ADG for days 21-28, trend (FIG. 5D): dramatically increased
improvement in lean percent (SARM-treated pigs vs control): ≤ 2%
improvement in pounds of fat free lean (SARM-treated pigs vs control): ≤ 2%
increase in loin eye area (LEA) (SARM-treated pigs vs control): ≤ 4%
1st rib fat (Table 6, 1 ppm): 1.47 in
10th rib fat (Table 6, 1 ppm): 0.78 in
Dress (Table 6, 1 ppm): 69.6%
Fat free lean (Table 6, 1 ppm): 106.9 lb
Heart Wt (Table 6, 1 ppm): 1.04 lb
Kidney Wt (Table 6, 1 ppm): 1.2 lb
LEA (Table 6, 1 ppm): 7.26 in^2
Last lumbar fat (row head printed only as 'in') (Table 6, 1 ppm): 0.77 in
Last rib fat (Table 6, 1 ppm): 0.9 in
Lean (Table 6, 1 ppm): 53.2%
Liver Wt (Table 6, 1 ppm): 4.58 lb
1st rib fat (Table 6, 3 ppm): 1.48 in
10th rib fat (Table 6, 3 ppm): 0.8 in
Dress (Table 6, 3 ppm): 69.3%
Fat free lean (Table 6, 3 ppm): 105.5 lb
Heart Wt (Table 6, 3 ppm): 1.07 lb
Kidney Wt (Table 6, 3 ppm): 1.18 lb
LEA (Table 6, 3 ppm): 7.22 in^2
Last lumbar fat (row head printed only as 'in') (Table 6, 3 ppm): 0.82 in
Last rib fat (Table 6, 3 ppm): 0.91 in
Lean (Table 6, 3 ppm): 52.9%
Liver Wt (Table 6, 3 ppm): 4.95 lb
1st rib fat (Table 6, 10 ppm): 1.43 in
10th rib fat (Table 6, 10 ppm): 0.74 in
Dress (Table 6, 10 ppm): 70%
Fat free lean (Table 6, 10 ppm): 106.7 lb
Heart Wt (Table 6, 10 ppm): 1.01 lb
Kidney Wt (Table 6, 10 ppm): 1.16 lb
LEA (Table 6, 10 ppm): 7.59 in^2
Last lumbar fat (row head printed only as 'in') (Table 6, 10 ppm): 0.74 in
Last rib fat (Table 6, 10 ppm): 0.86 in
Lean (Table 6, 10 ppm): 54.3%
Liver Wt (Table 6, 10 ppm): 4.84 lb
1st rib fat (Table 7, 1 PPM): 1.47
10th rib fat (Table 7, 1 PPM): 0.780
Dress % (Table 7, 1 PPM): 70%
Heart Wt (Table 7, 1 PPM): 1.04
Kidney Wt (Table 7, 1 PPM): 1.20
Last lumbar fat (Table 7, 1 PPM): 0.770
Last rib fat (Table 7, 1 PPM): 0.900
Liver Wt (Table 7, 1 PPM): 4.58
1st rib fat (Table 7, 3 PPM): 1.48
10th rib fat (Table 7, 3 PPM): 0.800
Dress % (Table 7, 3 PPM): 69%
Heart Wt (Table 7, 3 PPM): 1.07
Kidney Wt (Table 7, 3 PPM): 1.18
Last lumbar fat (Table 7, 3 PPM): 0.815
Last rib fat (Table 7, 3 PPM): 0.905
Liver Wt (Table 7, 3 PPM): 4.95
1st rib fat (Table 7, 10 PPM): 1.43
10th rib fat (Table 7, 10 PPM): 0.735
Dress % (Table 7, 10 PPM): 70%
Heart Wt (Table 7, 10 PPM): 1.01
Kidney Wt (Table 7, 10 PPM): 1.16
Last lumbar fat (Table 7, 10 PPM): 0.740
Last rib fat (Table 7, 10 PPM): 0.855
Liver Wt (Table 7, 10 PPM): 4.84
lb FFL (Table 7, 1 PPM): 107 lb
lb FFL (Table 7, 3 PPM): 106 lb
lb FFL (Table 7, 10 PPM): 107 lb
LEA (Table 7, loin eye area, 1 PPM): 7.26
LEA (Table 7, loin eye area, 3 PPM): 7.22
LEA (Table 7, loin eye area, 10 PPM): 7.59
L side (1 PPM): 98.0
R side (1 PPM): 103
L side (3 PPM): 97.7
R side (3 PPM): 102
L side (10 PPM): 96.8
R side (10 PPM): 99.8
lbs FFL/D (1 PPM): 0.822 lbs/D
lbs FFL/D (3 PPM): 0.774 lbs/D
lbs FFL/D (10 PPM): 0.814 lbs/D
Day 0-7 F:G, effect of treatment (linear contrast): significantly increased
Day 8-14 average daily feed intake (ADFI), effect of treatment (linear contrast): decreased
carcass crude fat, effect of feeding (pig, in vivo): reducing
